Legend:
[1] = biological target: HIV-1 Reverse Transcriptase (RT) (Human immunodeficiency virus type 1 group M subtype B, UniProt P04585); assay: biochemical; format: biochemical
pseudovirus HIV-1HXB2 = assay: Single-cycle infection assay in TZM-bl cells; details: for antiviral activity (in words): SAR discussion of Table 1
Cytotoxicity [2] = format: cell-based; details: human, TZM-bl cells, TZMb-l CC50, TZM-bl cells, 3 days, MTS; mean ± SD, n=3
Cytotoxicity [3] = format: cell-based, human; details: human, MT-2 cells, MT-2 CC50, MT-2 cells, MTS; mean ± SD, n=3
TZM-bl cells = assay: Cytotoxicity; format: cell-based; details: for CC50: read-out: TZMb-l CC50, TZM-bl cells, 3 days, MTS, mean ± SD, n=3; for cytotoxicity higher compared with the parent compounds: compared with NBD-14122 / NBD-14123; for cytotoxicity became higher: di-fluoro at position 2 of 1,3-benzodioxole, versus non-fluorinated compounds
MT-2 cells = assay: Cytotoxicity; format: cell-based, human; details: read-out: MT-2 CC50, MTS, mean ± SD, n=3
HIV-1IIIB = assay: Multi-cycle infection assay in MT-2 cells; format: cell-based; details: read-out: MT-2 IC50, p24, mean ± SD, n=3

Row | SMILES | CC50 at 3 days (Cytotoxicity [2]) [µM] | CC50 at 4 days (Cytotoxicity [3]) [µM] | CC50 (TZM-bl cells) [µM] | CC50 (MT-2 cells) [µM] | IC50 (HIV-1IIIB) [µM] | also measured
1 | CC1(C)CC(NC(=O)C(=O)Nc2ccc(Cl)cc2)CC(C)(C)N1 [NBD-556, reference compound] | – | – | – | – | – | IC50 ([1]; HIV-1 Reverse Transcriptase, mean ± SD, n=3): > 300 µM; activity against HIV-1 RT ([1]; at 300 μM): no activity
2 | Cc1nc(C(CN)NC(=O)C(=O)Nc2ccc3c(c2)OCO3)sc1CO (stereo not drawn) [NBD-14108, N1-(2-amino-1-(5-(hydroxymethyl)-4-methylthiazol-2-yl)ethyl)-N2-(benzo[d][1,3]dioxol-5-yl)oxalamide] | ≥ 750 | ≥ 650 | – | – | – | antiviral activity (in words) (pseudovirus HIV-1HXB2): completely lost
3 | Cc1nc(C(CN)NC(=O)c2ccc(-c3ccc4c(c3)OCO4)[nH]2)sc1CO (stereo not drawn) [NBD-14111, N-(2-amino-1-(5-(hydroxymethyl)-4-methylthiazol-2-yl)ethyl)-5-(benzo[d][1,3]dioxol-5-yl)-1H-pyrrole-2-carboxamide] | – | – | 146 ± 5.2 | 170 ± 9 | 9.8 ± 4.8 | antiviral activity (in words) (pseudovirus HIV-1HXB2): lost its antiviral activity
4 | Cc1nc(C(NC(=O)c2ccc(-c3ccc4c(c3)OCO4)[nH]2)C(C)(C)N)sc1CO (stereo not drawn) [NBD-14116, N-(2-amino-1-(5-(hydroxymethyl)-4-methylthiazol-2-yl)-2-methylpropyl)-5-(benzo[d][1,3]dioxol-5-yl)-1H-pyrrole-2-carboxamide] | 55.2 ± 5.4 | 98 ± 2.2 | – | – | – | –
5 | Cc1nc(C(NC(=O)c2ccc(-c3ccc4c(c3)OCO4)[nH]2)C(C)(C)N)sc1CO (stereo not drawn) [NBD-14117, N-(2-amino-1-(5-(hydroxymethyl)-4-methylthiazol-2-yl)-2-methylpropyl)-5-(benzo[d][1,3]dioxol-5-yl)-1H-pyrrole-2-carboxamide] | – | – | 66.9 ± 1.4 | 98 ± 1.5 | 2.5 ± 1 | –
6 | CC(C)(N)C(NC(=O)c1ccc(-c2ccc3c(c2)OCO3)[nH]1)c1ncc(CO)s1 (stereo not drawn) [NBD-14118, N-(2-amino-1-(5-(hydroxymethyl)thiazol-2-yl)-2-methylpropyl)-5-(benzo[d][1,3]dioxol-5-yl)-1H-pyrrole-2-carboxamide] | 64.3 ± 3.7 | 123 ± 10.5 | – | – | – | –
7 | CC(C)(N)C(NC(=O)c1ccc(-c2ccc3c(c2)OCO3)[nH]1)c1ncc(CO)s1 (stereo not drawn) [NBD-14119, N-(2-amino-1-(5-(hydroxymethyl)thiazol-2-yl)-2-methylpropyl)-5-(benzo[d][1,3]dioxol-5-yl)-1H-pyrrole-2-carboxamide] | – | – | 69.2 ± 3.8 | 106 ± 4.4 | 2.8 ± 0.9 | improvement in antiviral activity/potency compared with NBD-14123 (pseudovirus HIV-1HXB2): ~ 2.3 fold
8 | NCC(NC(=O)c1ccc(-c2ccc3c(c2)OCO3)[nH]1)c1ncc(CO)s1 (stereo not drawn) [NBD-14122, N-(2-amino-1-(5-(hydroxymethyl)thiazol-2-yl)ethyl)-5-(benzo[d][1,3]dioxol-5-yl)-1H-pyrrole-2-carboxamide] | – | – | 154.4 ± 1.5 | 183 ± 3 | 5.1 ± 0.4 | –
9 | NCC(NC(=O)c1ccc(-c2ccc3nsnc3c2)[nH]1)c1ncc(CO)s1 (stereo not drawn) [NBD-14126, N-(2-amino-1-(5-(hydroxymethyl)thiazol-2-yl)ethyl)-5-(benzo[c][1,2,5]thiadiazol-5-yl)-1H-pyrrole-2-carboxamide] | 79.9 ± 1 | 117 ± 4.3 | – | – | – | improvement in antiviral activity compared with NBD-14122 (pseudovirus HIV-1HXB2): about 2.8 fold; cytotoxicity higher compared with the parent compounds (TZM-bl cells): about 1.5 fold
10 | NCC(NC(=O)c1ccc(-c2ccc3nsnc3c2)[nH]1)c1ncc(CO)s1 (stereo not drawn) [NBD-14127, N-(2-amino-1-(5-(hydroxymethyl)thiazol-2-yl)ethyl)-5-(benzo[c][1,2,5]thiadiazol-5-yl)-1H-pyrrole-2-carboxamide] | – | – | 96.7 ± 2.9 | 137 ± 1.5 | 7.3 ± 1.5 | improvement in antiviral activity/potency compared with NBD-14123 (pseudovirus HIV-1HXB2): ~ 1.6 fold; cytotoxicity higher compared with the parent compounds (TZM-bl cells): about 1.5 fold
11 | CC1(C)Oc2ccc(-c3ccc(C(=O)NC(CN)c4ncc(CO)s4)[nH]3)cc2O1 (stereo not drawn) [NBD-14133, N-(2-amino-1-(5-(hydroxymethyl)thiazol-2-yl)ethyl)-5-(2,2-dimethylbenzo[d][1,3]dioxol-5-yl)-1H-pyrrole-2-carboxamide] | 64 ± 1.2 | 96.5 ± 1.2 | – | – | – | antiviral activity (in words) (pseudovirus HIV-1HXB2): lost their antiviral potency
12 | CC1(C)Oc2ccc(-c3ccc(C(=O)NC(CN)c4ncc(CO)s4)[nH]3)cc2O1 (stereo not drawn) [NBD-14134, N-(2-amino-1-(5-(hydroxymethyl)thiazol-2-yl)ethyl)-5-(2,2-dimethylbenzo[d][1,3]dioxol-5-yl)-1H-pyrrole-2-carboxamide] | – | – | 61.1 ± 1.4 | 89.3 ± 1.3 | 15.3 ± 5 | antiviral activity (in words) (pseudovirus HIV-1HXB2): lost their antiviral potency
13 | CNCC(NC(=O)c1ccc(-c2ccc3c(c2)OCO3)[nH]1)c1ncc(CO)s1 (stereo not drawn) [NBD-14139, 5-(benzo[d][1,3]dioxol-5-yl)-N-(1-(5-(hydroxymethyl)thiazol-2-yl)-2-(methylamino)ethyl)-1H-pyrrole-2-carboxamide] | 149 ± 11.3 | 178 ± 8 | – | – | – | –
14 | CNCC(NC(=O)c1ccc(-c2ccc3c(c2)OCO3)[nH]1)c1ncc(CO)s1 (stereo not drawn) [NBD-14140, 5-(benzo[d][1,3]dioxol-5-yl)-N-(1-(5-(hydroxymethyl)thiazol-2-yl)-2-(methylamino)ethyl)-1H-pyrrole-2-carboxamide] | – | – | 153 ± 11.5 | 173 ± 8 | 9.32 ± 2.8 | –
15 | NCC(NC(=O)c1ccc(-c2ccc3c(c2)OC(F)(F)O3)[nH]1)c1ncc(CO)s1 (stereo not drawn) [NBD-14144, N-(2-amino-1-(5-(hydroxymethyl)thiazol-2-yl)ethyl)-5-(2,2-difluorobenzo[d][1,3]dioxol-5-yl)-1H-pyrrole-2-carboxamide] | 37.9 ± 2.4 | 43.4 ± 3.6 | – | – | – | improvement in antiviral activity compared with NBD-14122 (pseudovirus HIV-1HXB2): ~ 4.5 fold; cytotoxicity became higher (TZM-bl cells): ~ 3.9 fold
16 | NCC(NC(=O)c1ccc(-c2ccc3c(c2)OC(F)(F)O3)[nH]1)c1ncc(CO)s1 (stereo not drawn) [NBD-14145, N-(2-amino-1-(5-(hydroxymethyl)thiazol-2-yl)ethyl)-5-(2,2-difluorobenzo[d][1,3]dioxol-5-yl)-1H-pyrrole-2-carboxamide] | – | – | 38.7 ± 1.3 | 41 ± 2.7 | 3.1 ± 0.5 | improvement in antiviral activity (pseudovirus HIV-1HXB2; di-fluoro at position 2 of 1,3-benzodioxole, comparator not stated): ~ 1.7 fold; cytotoxicity became higher (TZM-bl cells): ~ 3.9 fold
17 | CNCC(NC(=O)c1ccc(-c2ccc3c(c2)OCO3)[nH]1)c1nc(CO)cs1 (stereo not drawn) [NBD-14158, 5-(benzo[d][1,3]dioxol-5-yl)-N-(1-(4-(hydroxymethyl)thiazol-2-yl)-2-(methylamino)ethyl)-1H-pyrrole-2-carboxamide] | 157 ± 7.8 | 192 ± 4.2 | – | – | 9.5 ± 0.5 | –
18 | NCC(NC(=O)c1ccc(-c2ccc3c(c2)OCO3)[nH]1)c1nc(CO)cs1 (stereo not drawn) [NBD-14172, N-(2-amino-1-(4-(hydroxymethyl)thiazol-2-yl)ethyl)-5-(benzo[d][1,3]dioxol-5-yl)-1H-pyrrole-2-carboxamide] | 92.3 ± 2.9 | 156 ± 14.3 | – | – | 2.4 ± 0.3 | improvement in antiviral activity/potency compared with NBD-14123 (pseudovirus HIV-1HXB2): about 1.5 fold
19 | NCC(NC(=O)c1ccc(-c2ccc3c(c2)OCO3)[nH]1)c1nc(CO)cs1 (stereo not drawn) [NBD-14173, N-(2-amino-1-(4-(hydroxymethyl)thiazol-2-yl)ethyl)-5-(benzo[d][1,3]dioxol-5-yl)-1H-pyrrole-2-carboxamide] | – | – | 105 ± 7.9 | 176 ± 4.3 | 8.2 ± 2.7 | –

From paper PMC6446940 (ChemMedChem, 2018)
